Test results from PubChem BioAssay (NCI).
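All cell lines were grown in 96-well plates and treated with compound for 48 hours. TGI marks complete inhibition of growth.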

Experiments:
Assay in all cases: NCI tumour cell line growth inhibition, 48 h
UACC-257 melanoma = test system: UACC-257 melanoma
EKVX NSCLC = test system: EKVX NSCLC
COLO 205 colon = test system: COLO 205 colon
SNB-19 CNS = test system: SNB-19 CNS
MCF7 breast = test system: MCF7 breast
SK-MEL-2 melanoma = test system: SK-MEL-2 melanoma
HL-60(TB) leukemia = test system: HL-60(TB) leukemia
RXF 393 renal = test system: RXF 393 renal
MOLT-4 leukemia = test system: MOLT-4 leukemia
T-47D breast = test system: T-47D breast
IGROV1 ovarian = test system: IGROV1 ovarian
OVCAR-4 ovarian = test system: OVCAR-4 ovarian
RPMI-8226 leukemia = test system: RPMI-8226 leukemia
NCI-H226 lung = test system: NCI-H226 lung
HCC-2998 colon = test system: HCC-2998 colon
K-562 leukemia = test system: K-562 leukemia
OVCAR-3 ovarian = test system: OVCAR-3 ovarian
HCT-15 colon = test system: HCT-15 colon
HS 578T breast = test system: HS 578T breast
HOP-92 NSCLC = test system: HOP-92 NSCLC
DU-145 prostate = test system: DU-145 prostate
SK-MEL-28 melanoma = test system: SK-MEL-28 melanoma
SW-620 colon = test system: SW-620 colon
HT29 colon = test system: HT29 colon
SK-OV-3 ovarian = test system: SK-OV-3 ovarian
MDA-MB-231 breast = test system: MDA-MB-231 breast
SNB-75 CNS = test system: SNB-75 CNS
OVCAR-8 ovarian = test system: OVCAR-8 ovarian
BT-549 breast = test system: BT-549 breast
SF-268 CNS = test system: SF-268 CNS
UACC-62 melanoma = test system: UACC-62 melanoma
NCI-H460 lung = test system: NCI-H460 lung
M14 melanoma = test system: M14 melanoma
SR leukemia = test system: SR leukemia
MDA-MB-435 = test system: MDA-MB-435
KM12 colon = test system: KM12 colon
786-0 renal = test system: 786-0 renal
HCT-116 colon = test system: HCT-116 colon
SF-295 CNS = test system: SF-295 CNS
NCI/ADR-RES ovarian = test system: NCI/ADR-RES ovarian
CCRF-CEM leukemia = test system: CCRF-CEM leukemia
LOX IMVI melanoma = test system: LOX IMVI melanoma
NCI-H23 lung = test system: NCI-H23 lung
CAKI-1 renal = test system: CAKI-1 renal
TK-10 renal = test system: TK-10 renal
NCI-H522 lung = test system: NCI-H522 lung
PC-3 prostate = test system: PC-3 prostate
A549 NSCLC = test system: A549 NSCLC
UO-31 renal = test system: UO-31 renal
MALME-3M melanoma = test system: MALME-3M melanoma
OVCAR-5 ovarian = test system: OVCAR-5 ovarian
SK-MEL-5 melanoma = test system: SK-MEL-5 melanoma
ACHN renal = test system: ACHN renal
HOP-62 NSCLC = test system: HOP-62 NSCLC
SN12C renal = test system: SN12C renal
U251 CNS = test system: U251 CNS
SF-539 CNS = test system: SF-539 CNS
A498 renal = test system: A498 renal

COc1ccc2c(c1)C(=O)CC(C(N)=O)C2 (stereo not drawn)
TGI (UACC-257 melanoma): > 100 µM
TGI (EKVX NSCLC): > 100 µM
TGI (COLO 205 colon): > 100 µM
TGI (SNB-19 CNS): > 100 µM
TGI (MCF7 breast): > 100 µM
TGI (SK-MEL-2 melanoma): > 100 µM
TGI (HL-60(TB) leukemia): > 100 µM
TGI (RXF 393 renal): > 100 µM
TGI (MOLT-4 leukemia): > 100 µM
TGI (T-47D breast): > 100 µM
TGI (IGROV1 ovarian): > 100 µM
TGI (OVCAR-4 ovarian): > 100 µM
TGI (RPMI-8226 leukemia): > 100 µM
TGI (NCI-H226 lung): > 100 µM
TGI (HCC-2998 colon): > 100 µM
TGI (K-562 leukemia): > 100 µM
TGI (OVCAR-3 ovarian): > 100 µM
TGI (HCT-15 colon): > 100 µM
TGI (HS 578T breast): > 100 µM
TGI (HOP-92 NSCLC): > 100 µM
TGI (DU-145 prostate): > 100 µM
TGI (SK-MEL-28 melanoma): > 100 µM
TGI (SW-620 colon): > 100 µM
TGI (HT29 colon): > 100 µM
TGI (SK-OV-3 ovarian): > 100 µM
TGI (MDA-MB-231 breast): > 100 µM
TGI (SNB-75 CNS): > 100 µM
TGI (OVCAR-8 ovarian): > 100 µM
TGI (BT-549 breast): > 100 µM
TGI (SF-268 CNS): > 100 µM
TGI (UACC-62 melanoma): > 100 µM
TGI (NCI-H460 lung): > 100 µM
TGI (M14 melanoma): > 100 µM
TGI (SR leukemia): > 100 µM
TGI (MDA-MB-435): > 100 µM
TGI (KM12 colon): > 100 µM
TGI (786-0 renal): > 100 µM
TGI (HCT-116 colon): > 100 µM
TGI (SF-295 CNS): > 100 µM
TGI (NCI/ADR-RES ovarian): > 100 µM
TGI (CCRF-CEM leukemia): > 100 µM
TGI (LOX IMVI melanoma): > 100 µM
TGI (NCI-H23 lung): > 100 µM
TGI (CAKI-1 renal): > 100 µM
TGI (TK-10 renal): > 100 µM
TGI (NCI-H522 lung): > 100 µM
TGI (PC-3 prostate): > 100 µM
TGI (A549 NSCLC): > 100 µM
TGI (UO-31 renal): > 100 µM
TGI (MALME-3M melanoma): > 100 µM
TGI (OVCAR-5 ovarian): > 100 µM
TGI (SK-MEL-5 melanoma): > 100 µM
TGI (ACHN renal): > 100 µM
TGI (HOP-62 NSCLC): > 100 µM
TGI (SN12C renal): > 100 µM
TGI (U251 CNS): > 100 µM

Nc1ccc(Oc2ccc(C34CC5CC(C3)CC(c3ccc(Oc6ccc(N)c(O)c6)cc3)(C5)C4)cc2)cc1O
TGI (UACC-257 melanoma): 4.72 µM
TGI (EKVX NSCLC): 3.63 µM
TGI (COLO 205 colon): 2.85 µM
TGI (SNB-19 CNS): 7.5 µM
TGI (MCF7 breast): 8.95 µM
TGI (SK-MEL-2 melanoma): 5.1 µM
TGI (RXF 393 renal): 3.33 µM
TGI (MOLT-4 leukemia): > 100 µM
TGI (T-47D breast): 4.07 µM
TGI (SF-539 CNS): 4.57 µM
TGI (IGROV1 ovarian): 3.04 µM
TGI (OVCAR-4 ovarian): 5.28 µM
TGI (RPMI-8226 leukemia): > 100 µM
TGI (NCI-H226 lung): 9.93 µM
TGI (K-562 leukemia): > 100 µM
TGI (OVCAR-3 ovarian): 5.05 µM
TGI (HCT-15 colon): 4.37 µM
TGI (HS 578T breast): 4.97 µM
TGI (HOP-92 NSCLC): 4.48 µM
TGI (DU-145 prostate): 3.3 µM
TGI (SK-MEL-28 melanoma): 6.21 µM
TGI (SW-620 colon): > 100 µM
TGI (HT29 colon): 5.16 µM
TGI (SK-OV-3 ovarian): 8.57 µM
TGI (MDA-MB-231 breast): 3 µM
TGI (OVCAR-8 ovarian): 4.86 µM
TGI (BT-549 breast): 3.37 µM
TGI (SF-268 CNS): 2.9 µM
TGI (UACC-62 melanoma): 6.59 µM
TGI (NCI-H460 lung): 3.37 µM
TGI (M14 melanoma): 3.05 µM
TGI (SR leukemia): > 100 µM
TGI (KM12 colon): 3.62 µM
TGI (786-0 renal): > 46 µM
TGI (SF-295 CNS): 5.1 µM
TGI (NCI/ADR-RES ovarian): 6.12 µM
TGI (A498 renal): 36.1 µM
TGI (LOX IMVI melanoma): 3.11 µM
TGI (NCI-H23 lung): 4.1 µM
TGI (CAKI-1 renal): 3.57 µM
TGI (TK-10 renal): > 20.3 µM
TGI (NCI-H522 lung): 3.33 µM
TGI (PC-3 prostate): 5.69 µM
TGI (A549 NSCLC): 3.24 µM
TGI (UO-31 renal): 3.23 µM
TGI (MALME-3M melanoma): 6.24 µM
TGI (OVCAR-5 ovarian): 4.3 µM
TGI (SK-MEL-5 melanoma): 4.37 µM
TGI (ACHN renal): 3.5 µM
TGI (HOP-62 NSCLC): 12 µM
TGI (SN12C renal): > 21.2 µM
TGI (U251 CNS): 2.72 µM
